{
  "source": "patent US6476007B2",
  "about": "“Isoform specific inhibition for treatment of pain and reduction of anesthetic threshold” (The Johns Hopkins University, priority 1999, dated 2002)",
  "key": {"[1]": {"tested_on": "NMDA-produced facilitation of the tail flick reflex", "conditions": "pretreatment, spinal cord; Meller et al., 1992a; cited from earlier work"}, "tail-flick latency": {"tested_on": "tail-flick latency", "experiment": "Radiant heat tail-flick test, agents given alone intrathecally", "format": "in vivo, rat", "conditions": "for maximal decrease in the tail-flick latency: compared to saline-treated group"}, "[2]": {"experiment": "Subjective observation of animal behavior after intrathecal administration", "conditions": "period of 2 h, compared with control animals"}, "[3]": {"tested_on": "PKGIα expression in the spinal cord", "experiment": "Western blot of PKGIα in lumbar enlargement segments 96 h after formalin injection", "format": "in vivo, rat", "conditions": "96 h formalin-treated rats, not significant (p>0.05)", "protocol": "Thirty five rats were sacrificed by decapitation at 0 h (normal control), 24 h, 48 h and 96 h after injection of saline (100 μl) or formalin (100 μl, 4%) into a hind paw. Lumbar enlargement segments of the spinal cord were dissected, quickly frozen in liquid nitrogen and stored at −80° C. for later use. Frozen tissues were homogenized in the homogenization buffer (50 mM Tris-HCl, 0.1 mM EDTA, 0.1mM EGTA, 1 mM phenylmethylsulfonyl fluoride, 1 μM leupeptin, 2 μM pepstatin A, 0.1% 2-mercaptoethanol). The crude homogenate was centrifuged at 4° C. for 15 min at 3,000×g. The supernatants (100 μg) were heated for 5 min at 90° C. and then loaded onto 4% stacking/7.5% separating SDS-polyacrylamide gels. The proteins were electrophoretically transferred onto nitrocellulose membrane and blocked with 2% non-fat dry milk and subsequently incubated for 1 h with polyclonal rabbit anti-PKGIα antibody (1:500) and with monoclonal mouse anti-endothelium NOS (eNOS) antibody (1:500) (Transduction Labs). Normal lung was used as a positive control. Specific proteins were detected using horseradish peroxidase-conjugated anti-rabbit or anti-mouse secondary antibody and visualized using chemiluminescence reagents provided with the ECL kit (Amersham Life Sciences Inc, II) and exposure to film. The intensity of blots was quantified with densitometry (Personal Densitometer/IMAGEQUANT; Molecular Dynamics).\nIn some experiments, rats were injected intraperitoneally (i.p.) with an NMDA receptor antagonist, MK-801 (RBI, MA), a selective neuronal NOS inhibitor (nNOS), 7-Nitroindazole (7-NI, Alexis Biochemicals, CA) and a selective sGC inhibitor, 1H-[1,2,4]oxadiazolo[4,3-a]quinoxalin-1-one (ODQ, Alexis Biochemicals, CA), each day for 4 days (96 h). The doses of MK-801, 7-NI and ODQ used in the present study were determined regarding to the previous studies (29-31). The experiments were divided into five groups. Group 1 (n=4) as control: i.p. injection of saline (0.9%, 2 ml) or peanut oil (2 ml) 30 min prior to the subcutaneous injection of saline (0.9%, 100 μl). […]"}, "[4]": {"tested_on": "NMDA-induced facilitation of the tail-flick reflex", "experiment": "NMDA-induced facilitation of the tail-flick reflex", "format": "in vivo, rat"}, "[5]": {"tested_on": "formalin-induced pain behavior", "conditions": "for reduction of the number of flinches and shakes evoked by formalin: 30 μg intrathecal", "protocol": "The rats were implanted with an intrathecal catheter under pentobarbital anesthesia. A polyethylene (PE-10) tube was inserted into the subarachnoid space at the rostral level of the spinal cord lumbar enlargement through an incision at the atlanto-occipital membrane according to the method of Yaksh and Rudy (27). The animals were allowed to recover for 7 to 10 days before being used experimentally. Rats showing neurological deficits postoperatively were discarded.\n(§1) The drug was dissolved in distilled water before administration. The animals were randomly assigned into four groups as follows: distilled water (control) (n=12); 10 μg of Rp-8-p-CPT-cGMPS (n=6); 20 μg of Rp-8-p-CPT-cGMPS (n=6); 30 μg of Rp-8-p-CPTc-GMPS (n=6). The drug solution was injected intrathecally in a volume of 10 μl, followed by an injection of 10 μl of distilled water to flush the catheter. Fifteen minutes later, formalin (100 μl, 4%) was injected into a hind paw of the rat. In addition, four rats were alone treated intrathecally with Rp-8-p-CPT-cGMPS (30 μg) and another four rats were normal without any treatment.\nImmediately following the formalin injection, each individual rat was placed in a transparent cage for observation of the formalin-injected paw. The pain-related behaviors, flinches and shakes, were assessed for the next 60 min by an experimenter who was unaware of the group assignment. The observational session was divided into two periods: a phasic period (0-10 min) and a tonic period (10-60 min). The mean number of flinches and shakes for each period of each treatment group was determined"}, "[6]": {"tested_on": "formalin-induced c-fos expression in the spinal cord", "conditions": "for number of Fos-positive neurons in laminae I-II, III-IV and V-VI: vs water pretreated rats; for mean reduction in number of fos-positive neurons per section: vs control group, p<0.05", "protocol": "For Fos immunohistochemistry, rats were perfused one hour after the behavioral test was done as described below. The lumbar spinal cord was removed and cut into 30 μm transverse sections. Sections were processed following the above-mentioned procedures except that the primary antibody was substituted with polyclonal rabbit anti-Fos antibody (1:4,000, Santa Cruz Biotechnology, Inc., CA).\nas §1"}, "[7]": {"tested_on": "NOC-12-induced decrease in the tail-flick latency", "conditions": "for effect on NOC-12-induced decrease in the tail-flick latency: tested 30 and 60 min, p<0.01", "protocol": "Rats were anesthetized by intraperitoneal injection of pentobarbital sodium (45 mg/kg). Chronic intrathecal catheters were inserted by passing a polyethylene-10 (PE-10) catheter through an incision in the atlanto-occipital membrane to a position 8 cm caudal to the cistema at the level of the lumbar subarachinoid space. The animals were allowed to recover for a week before experiments were initiated. Rats showing neurologic deficits post-operatively were removed from the study.\nNociception was evaluated by the radiant heat tail-flick test with no anesthesia. Each rat was placed in an Animal Holder (IITC Life Science, CA, USA), 690 cm^3 in capacity with rubber stoppers in both ends with a rostral inlet and a caudal outlet. The tail of the rat protruded through the caudal hole. The tail-flick apparatus (Model 33B Tail Flick Analgesy Meter, IITC Life Science, CA, USA) generated a beam of radiant heat which was focused on the underside of the tail, 5 cm from the tip. […] Nociception was assessed by the prolongation of the time required to induce tail-flick after applying radiant heat to the skin of the tail. The latency of reflexive removal of the tail from the heat was measured automatically to the nearest 0.01 s. Tail-flick latency was measured six times and the basal latency was defined as the mean of the last five times. The tail-flick data are expressed as percentage change calculated by the formula: (trial latency—baseline latency)/(baseline latency)×100%.\nThe drug solution was injected intrathecally in a volume of 10 μl, followed by an injection of 10 μl of saline to flush the catheter."}, "[8]": {"tested_on": "mechanical allodynia induced by capsaicin", "conditions": "Sluka and Willis (1997); cited from earlier work"}, "[9]": {"conditions": "100 mg/kg i.p. in peanut oil each day for 4 days"}},
  "note": "Where a name gives a salt, the structure may show the parent alone. Read-outs that look alike come from different tables or passages of the source.",
  "data": [
    {"smiles": "CN(C)c1ccc2nc3ccc(=[N+](C)C)cc-3sc2c1", "note": "[methylene blue]", "values": [
      {"measurement": "effect on NMDA-produced facilitation of the tail flick reflex", "setting": "[1]", "result": "completely abolished"}
    ]},
    {"smiles": "CCNCCN(CC)N(O)N=O", "note": "[NOC-12, N-ethyl-2-(1-ethyl-2-hydroxy-2-nitrosohydrazino)ethanamine]", "values": [
      {"measurement": "maximal decrease in the tail-flick latency", "setting": "tail-flick latency; 10 μg intrathecal", "result": 5.4, "unit": "%"},
      {"measurement": "maximal decrease in the tail-flick latency", "setting": "tail-flick latency; 20 μg intrathecal, p<0.01", "result": 18.5, "unit": "%"},
      {"measurement": "maximal decrease in the tail-flick latency", "setting": "tail-flick latency; 30 μg intrathecal, p<0.01", "result": 24.9, "unit": "%"},
      {"measurement": "tail flick latency after maximal reduction", "setting": "tail-flick latency; 30 μg intrathecal, baseline 6.53±0.28 seconds", "result": "4.65 ± 0.32", "unit": "s"},
      {"measurement": "hyperalgesia 120 min after intrathecal injection", "setting": "tail-flick latency; 120 min after intrathecal injection", "result": "no longer observed"},
      {"measurement": "time of maximum effect on tail-flick latency", "setting": "tail-flick latency; intrathecal, decrease seen from 15 to 90 min", "result": 60, "unit": "min"},
      {"measurement": "changes in animal behavior on subjective observation", "setting": "[2]", "result": "no obvious changes in animal behavior"}
    ]},
    {"smiles": "O=[N+]([O-])c1cccc2cn[nH]c12", "note": "[7-NI, 7-Nitroindazole]", "values": [
      {"measurement": "PKGIα protein level relative to group 1 (saline-injected control)", "setting": "[3]; [9]", "result": 1.17, "unit": "fold"}
    ]},
    {"smiles": "COC(=O)[C@@H](N)CCCNC(=N)N[N+](=O)[O-]", "note": "[N^G-nitro-L-arginine methyl ester]", "values": [
      {"measurement": "effect on NMDA-produced facilitation of the tail flick reflex", "setting": "[1]", "result": "completely abolished"}
    ]},
    {"smiles": "C[C@]12N[C@H](Cc3ccccc31)c1ccccc12", "note": "[MK-801, dizocilpine maleate]", "values": [
      {"measurement": "PKGIα protein level relative to group 1 (saline-injected control)", "setting": "[3]; 2 mg/kg i.p. each day for 4 days", "result": 1.13, "unit": "fold"},
      {"measurement": "effect on NMDA-produced facilitation of the tail-flick reflex", "setting": "[4]; prior intrathecal treatment, p<0.01", "result": "completely abolished"}
    ]},
    {"smiles": "CCN(CC)CC.Nc1nc2c(nc(Sc3ccc(Cl)cc3)n2[C@@H]2O[C@@H]3COP(O)(=S)O[C@H]3[C@H]2O)c(=O)[nH]1", "note": "(stereo partly drawn) [Rp-8-p-CPT-cGMPS, Rp-8-[(4-Chlorophenyl)thio]-cGMPS triethylamine]", "values": [
      {"measurement": "effect on the formalin response", "setting": "[5]; 10 μg intrathecal, phasic or tonic period", "result": "did not influence"},
      {"measurement": "effect on the formalin-induced behavior", "setting": "[5]; 20 μg intrathecal, phasic period", "result": "no effect"},
      {"measurement": "suppression of the formalin-induced behavior", "setting": "[5]; 20 μg intrathecal, tonic period, p<0.01", "result": 25, "unit": "%"},
      {"measurement": "reduction of the number of flinches and shakes evoked by formalin", "setting": "[5]; phasic period (0-10 min), p<0.01", "result": 64, "unit": "%"},
      {"measurement": "reduction of the number of flinches and shakes evoked by formalin", "setting": "[5]; tonic period (10-60 min), p<0.01", "result": 66, "unit": "%"},
      {"measurement": "number of Fos-positive neurons in laminae I-II, III-IV and V-VI", "setting": "[6]; 20 μg intrathecal", "result": "significantly decreased"},
      {"measurement": "mean reduction in number of fos-positive neurons per section", "setting": "[6]; 30 μg intrathecal, neck of dorsal horn", "result": 51, "unit": "%"},
      {"measurement": "mean reduction in number of fos-positive neurons per section", "setting": "[6]; 30 μg intrathecal, nucleus proprius", "result": 30, "unit": "%"},
      {"measurement": "mean reduction in number of fos-positive neurons per section", "setting": "[6]; 30 μg intrathecal, superficial laminae", "result": 29, "unit": "%"},
      {"measurement": "number of Fos-positive neurons in laminae I-II, III-IV and V-VI", "setting": "[6]; 30 μg intrathecal", "result": "significantly decreased"},
      {"measurement": "number of Fos-positive neurons in laminae VII-X", "setting": "[6]; intrathecal 10, 20 and 30 μg, vs water", "result": "no significant reduction"},
      {"measurement": "Fos-positive neurons in the spinal cord", "setting": "[6]; treatment with the agent only (30 μg intrathecal), no formalin", "result": "no Fos-positive neurons"},
      {"measurement": "effect on the baseline tail-flick latency", "setting": "tail-flick latency; 7.5, 15 and 30 μg given alone, 15 to 120 min after administration, p>0.05", "result": "no significant effect"},
      {"measurement": "effect on the hyperalgesia induced by NOC-12", "setting": "[7]; 7.5 μg intrathecal, 30 μg NOC-12, p>0.05", "result": "did not influence"},
      {"measurement": "effect on NOC-12-induced decrease in the tail-flick latency", "setting": "[7]; 15 μg intrathecal 10 min prior to 30 μg NOC-12", "result": "significantly blocked"},
      {"measurement": "effect on NOC-12-induced decrease in the tail-flick latency", "setting": "[7]; 30 μg intrathecal 10 min prior to 30 μg NOC-12", "result": "significantly blocked"},
      {"measurement": "effect on the NMDA-evoked facilitation of the tail-flick reflex", "setting": "[4]; 7.5 μg intrathecal, p>0.05", "result": "failed to produce significant effect"},
      {"measurement": "suppression of the NMDA-induced decrease of the tail-flick latency", "setting": "[4]; 15 μg intrathecal prior administration, p<0.01", "result": 13.3, "unit": "%"},
      {"measurement": "suppression of the NMDA-induced decrease of the tail-flick latency", "setting": "[4]; 30 μg intrathecal prior administration, p<0.01", "result": 20.7, "unit": "%"},
      {"measurement": "changes in animal behavior on subjective observation", "setting": "[2]", "result": "no obvious changes in animal behavior"}
    ]},
    {"smiles": "CN[C@H](CC(=O)O)C(=O)O", "note": "[NMDA, N-methyl-D-aspartate]", "values": [
      {"measurement": "tail-flick latency after intrathecal administration", "setting": "tail-flick latency; intrathecal NMDA, baseline 6.58±0.57 seconds, p<0.01", "result": "4.88 ± 0.41", "unit": "s"},
      {"measurement": "changes in animal behavior on subjective observation", "setting": "[2]", "result": "caudally directed biting and scratching behaviors"}
    ]},
    {"smiles": "COC(=O)[C@@]1(OC)C[C@H]2O[C@]1(C)n1c3ccccc3c3c4c(c5c6ccccc6n2c5c31)C(=O)N(C)C4", "note": "[KT5823]", "values": [
      {"measurement": "effect on mechanical allodynia induced by capsaicin", "setting": "[8]", "result": "reversed"}
    ]},
    {"smiles": "O=c1onc2cnc3ccccc3n12", "note": "[ODQ, 1H-[1,2,4]oxadiazolo[4,3-a]quinoxalin-1-one]", "values": [
      {"measurement": "PKGIα protein level relative to group 1 (saline-injected control)", "setting": "[3]; [9]", "result": 1.14, "unit": "fold"}
    ]}
  ]
}
